What all share (type): biochemical
One experiment deals with TYK2 (Homo sapiens, UniProt P29597). Put plainly: JAK kinase activity, homogeneous time-resolved fluorescence (TYK2 reaction system). The conditions noted are these: ATP 2 μM, TYK2 protein 0.2 ng/μL; read-out: TYK 2 activity. In short, it runs like this:
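Activity read as the 665 nm/615 nm ratio after adding EDTA-containing detection mix with anti-phospho-substrate antibody and XL-615. Beforehand, 0.2 ng/μL TYK2, 2 μM ATP, substrate and compound reacted 1 h in pH 7.0 Hepes buffer with MgCl2 and DTT. IC50 fitted with Hill-slope equation.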

A further experiment addresses T1, JAK3 (Homo sapiens, UniProt P52333).
T1 sequence (P52333 1-1124): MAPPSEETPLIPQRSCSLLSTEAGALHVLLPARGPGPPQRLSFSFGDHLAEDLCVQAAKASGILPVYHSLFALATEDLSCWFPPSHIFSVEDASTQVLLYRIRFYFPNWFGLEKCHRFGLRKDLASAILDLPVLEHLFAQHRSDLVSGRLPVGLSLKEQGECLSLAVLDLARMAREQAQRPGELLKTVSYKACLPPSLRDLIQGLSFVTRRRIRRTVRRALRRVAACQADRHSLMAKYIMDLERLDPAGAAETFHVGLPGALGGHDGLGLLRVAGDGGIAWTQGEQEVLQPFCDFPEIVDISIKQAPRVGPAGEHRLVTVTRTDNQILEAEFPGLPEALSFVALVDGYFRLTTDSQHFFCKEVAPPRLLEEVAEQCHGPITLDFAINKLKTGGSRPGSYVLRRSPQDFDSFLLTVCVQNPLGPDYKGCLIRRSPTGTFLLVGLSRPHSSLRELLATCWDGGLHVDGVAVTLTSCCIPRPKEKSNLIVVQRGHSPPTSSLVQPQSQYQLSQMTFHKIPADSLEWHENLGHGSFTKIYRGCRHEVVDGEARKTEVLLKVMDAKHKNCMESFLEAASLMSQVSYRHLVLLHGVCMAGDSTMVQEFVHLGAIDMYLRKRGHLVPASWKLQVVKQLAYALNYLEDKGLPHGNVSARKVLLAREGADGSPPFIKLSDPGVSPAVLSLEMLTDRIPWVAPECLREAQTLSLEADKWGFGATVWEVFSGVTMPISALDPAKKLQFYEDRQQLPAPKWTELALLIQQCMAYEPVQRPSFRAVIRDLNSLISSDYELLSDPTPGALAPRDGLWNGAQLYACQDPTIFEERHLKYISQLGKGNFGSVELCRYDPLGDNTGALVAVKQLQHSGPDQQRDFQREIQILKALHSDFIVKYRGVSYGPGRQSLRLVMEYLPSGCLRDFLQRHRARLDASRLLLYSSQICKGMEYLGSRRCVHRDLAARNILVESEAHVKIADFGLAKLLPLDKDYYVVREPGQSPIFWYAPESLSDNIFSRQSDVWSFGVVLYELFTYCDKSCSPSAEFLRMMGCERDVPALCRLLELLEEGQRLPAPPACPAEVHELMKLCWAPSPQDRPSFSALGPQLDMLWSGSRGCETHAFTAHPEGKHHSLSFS
Put plainly: JAK kinase activity, homogeneous time-resolved fluorescence (JAK3 reaction system). The conditions noted are these: ATP 2 μM, JAK3 protein 0.04 ng/μL; read-out: JAK 3 activity.

Another experiment addresses JAK2 (Homo sapiens, UniProt O60674). Put plainly: JAK kinase activity, homogeneous time-resolved fluorescence (JAK2 reaction system). The conditions noted are these: ATP 2 μM, JAK2 protein 0.01 ng/μL. Put shortly: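 IC50 derived by Hill-equation fit of the 665/615 nm time-resolved fluorescence ratio after EDTA-containing detection mix with anti-phosphosubstrate antibody. Preceding 1 h reaction contained 2 μM ATP, 0.01 ng/μL JAK2, substrate, 50 mM Hepes pH 7.0, 5 mM MgCl2, 1 mM DTT.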

For another experiment, the target named is JAK1 (Homo sapiens, UniProt P23458). Put plainly: JAK kinase activity, homogeneous time-resolved fluorescence (JAK1 reaction system). The following applies: ATP 2 μM, JAK1 protein 0.2 ng/μL; read-out: JAK 1 activity. Put shortly:
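Kinase activity read as the 665 nm/615 nm time-resolved fluorescence ratio (320 nm excitation) after EDTA-containing antibody and XL-615 addition. Reaction ran 1 h at pH 7.0 (Hepes, MgCl2, DTT) with 0.2 ng/μL JAK1 and ATP at 2 μM. IC50 derived by Hill-slope fit.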

JAK1, sequence (P23458 whole entry): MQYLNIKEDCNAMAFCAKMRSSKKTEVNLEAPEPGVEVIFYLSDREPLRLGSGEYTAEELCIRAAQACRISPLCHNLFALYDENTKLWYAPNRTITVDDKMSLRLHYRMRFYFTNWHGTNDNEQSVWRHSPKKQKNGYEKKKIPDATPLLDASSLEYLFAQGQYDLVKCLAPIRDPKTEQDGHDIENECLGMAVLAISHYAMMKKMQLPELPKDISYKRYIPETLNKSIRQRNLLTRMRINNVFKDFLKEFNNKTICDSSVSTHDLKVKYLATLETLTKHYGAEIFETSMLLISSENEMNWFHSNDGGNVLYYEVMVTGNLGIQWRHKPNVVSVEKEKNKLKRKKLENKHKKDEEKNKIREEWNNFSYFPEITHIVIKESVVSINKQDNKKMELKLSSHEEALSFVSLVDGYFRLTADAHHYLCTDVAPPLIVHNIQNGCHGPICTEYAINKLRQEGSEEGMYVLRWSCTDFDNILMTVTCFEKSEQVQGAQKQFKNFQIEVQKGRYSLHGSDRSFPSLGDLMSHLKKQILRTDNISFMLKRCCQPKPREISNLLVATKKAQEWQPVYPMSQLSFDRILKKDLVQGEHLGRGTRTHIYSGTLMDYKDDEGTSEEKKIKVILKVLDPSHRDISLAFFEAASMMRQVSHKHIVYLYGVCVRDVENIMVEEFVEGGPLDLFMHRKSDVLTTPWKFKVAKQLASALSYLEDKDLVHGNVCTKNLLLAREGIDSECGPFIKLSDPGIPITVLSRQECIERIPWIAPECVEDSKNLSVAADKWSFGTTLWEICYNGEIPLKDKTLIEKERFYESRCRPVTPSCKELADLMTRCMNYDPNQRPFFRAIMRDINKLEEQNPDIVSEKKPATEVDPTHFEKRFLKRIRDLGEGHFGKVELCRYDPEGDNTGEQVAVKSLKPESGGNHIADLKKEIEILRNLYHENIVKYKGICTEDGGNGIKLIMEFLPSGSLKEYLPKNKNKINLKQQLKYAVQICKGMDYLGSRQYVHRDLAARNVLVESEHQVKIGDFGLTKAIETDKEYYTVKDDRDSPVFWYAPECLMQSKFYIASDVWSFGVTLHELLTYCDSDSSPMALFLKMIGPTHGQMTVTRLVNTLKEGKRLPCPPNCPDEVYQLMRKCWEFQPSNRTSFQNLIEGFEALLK
JAK2, sequence (O60674 whole entry): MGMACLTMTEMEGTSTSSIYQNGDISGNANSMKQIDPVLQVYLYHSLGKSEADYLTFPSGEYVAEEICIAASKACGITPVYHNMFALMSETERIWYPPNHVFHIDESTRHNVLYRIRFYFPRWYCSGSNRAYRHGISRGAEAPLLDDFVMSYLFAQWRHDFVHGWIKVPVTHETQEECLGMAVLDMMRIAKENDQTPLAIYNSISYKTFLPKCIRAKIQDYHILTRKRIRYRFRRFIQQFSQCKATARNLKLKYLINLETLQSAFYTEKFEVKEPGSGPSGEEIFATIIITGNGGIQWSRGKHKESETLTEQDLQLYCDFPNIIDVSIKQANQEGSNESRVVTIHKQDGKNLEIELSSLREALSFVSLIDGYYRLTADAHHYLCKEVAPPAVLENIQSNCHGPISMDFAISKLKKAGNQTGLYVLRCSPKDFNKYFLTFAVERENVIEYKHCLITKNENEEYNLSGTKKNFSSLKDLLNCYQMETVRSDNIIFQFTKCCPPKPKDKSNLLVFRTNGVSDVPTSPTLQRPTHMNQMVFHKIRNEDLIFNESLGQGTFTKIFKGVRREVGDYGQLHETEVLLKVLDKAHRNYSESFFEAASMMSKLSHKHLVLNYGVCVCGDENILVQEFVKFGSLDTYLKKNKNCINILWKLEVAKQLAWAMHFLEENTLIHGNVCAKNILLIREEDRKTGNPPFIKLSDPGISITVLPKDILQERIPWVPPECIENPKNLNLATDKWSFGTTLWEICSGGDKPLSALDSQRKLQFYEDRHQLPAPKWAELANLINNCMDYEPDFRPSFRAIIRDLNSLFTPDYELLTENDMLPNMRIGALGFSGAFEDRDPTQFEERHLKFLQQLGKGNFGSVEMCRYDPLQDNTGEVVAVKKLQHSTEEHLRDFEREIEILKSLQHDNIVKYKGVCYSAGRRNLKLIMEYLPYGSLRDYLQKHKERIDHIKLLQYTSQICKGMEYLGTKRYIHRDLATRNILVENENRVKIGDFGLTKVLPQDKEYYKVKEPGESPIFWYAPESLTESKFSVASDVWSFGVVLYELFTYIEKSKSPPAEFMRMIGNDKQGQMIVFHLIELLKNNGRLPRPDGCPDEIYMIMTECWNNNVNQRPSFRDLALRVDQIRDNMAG
TYK2, sequence (P29597 whole entry): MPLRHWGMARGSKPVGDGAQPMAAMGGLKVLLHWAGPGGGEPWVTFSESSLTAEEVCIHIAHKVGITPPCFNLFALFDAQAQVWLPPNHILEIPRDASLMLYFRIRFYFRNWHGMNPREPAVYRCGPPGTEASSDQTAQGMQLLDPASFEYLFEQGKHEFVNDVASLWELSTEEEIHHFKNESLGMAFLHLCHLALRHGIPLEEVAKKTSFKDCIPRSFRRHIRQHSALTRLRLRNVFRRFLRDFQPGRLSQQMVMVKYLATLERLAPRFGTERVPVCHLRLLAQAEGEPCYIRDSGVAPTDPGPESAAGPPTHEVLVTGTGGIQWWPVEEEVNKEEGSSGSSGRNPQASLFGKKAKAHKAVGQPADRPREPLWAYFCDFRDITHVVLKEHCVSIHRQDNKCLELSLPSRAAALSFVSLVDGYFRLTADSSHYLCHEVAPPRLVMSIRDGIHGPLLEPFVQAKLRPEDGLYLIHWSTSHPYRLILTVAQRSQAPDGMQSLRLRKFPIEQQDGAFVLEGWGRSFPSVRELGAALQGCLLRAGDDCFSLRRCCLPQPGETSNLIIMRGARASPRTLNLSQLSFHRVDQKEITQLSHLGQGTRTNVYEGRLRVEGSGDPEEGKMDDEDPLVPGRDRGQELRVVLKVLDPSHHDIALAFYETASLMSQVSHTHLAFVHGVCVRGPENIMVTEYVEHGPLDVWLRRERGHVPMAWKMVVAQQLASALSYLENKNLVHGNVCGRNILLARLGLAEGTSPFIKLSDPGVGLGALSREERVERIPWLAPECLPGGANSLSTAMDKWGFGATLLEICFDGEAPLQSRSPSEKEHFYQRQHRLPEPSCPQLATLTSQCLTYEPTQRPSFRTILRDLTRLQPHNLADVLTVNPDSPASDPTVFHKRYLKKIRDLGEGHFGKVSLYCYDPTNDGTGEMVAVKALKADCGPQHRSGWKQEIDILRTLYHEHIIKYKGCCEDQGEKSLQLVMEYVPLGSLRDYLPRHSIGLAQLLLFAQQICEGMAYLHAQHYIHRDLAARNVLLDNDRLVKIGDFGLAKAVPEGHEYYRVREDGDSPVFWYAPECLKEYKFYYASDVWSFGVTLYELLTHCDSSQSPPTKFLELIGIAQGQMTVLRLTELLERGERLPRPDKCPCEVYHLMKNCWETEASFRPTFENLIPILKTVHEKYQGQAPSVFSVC

Take `CC1CCNC(=O)c2ccc(c(N)c2)-c2ccnc(n2)Nc2ccc(OCC3CCCOC3)c(c2)COC1` (centres unmarked) [Example 140, 1^2-amino-8-methyl-4^4-((tetrahydro-2H-pyran-3-yl)methoxy)-6-oxa-3,11-diaza-2(4,2)-pyrimidina-1(1,4),4(1,3)-dibenzenacyclododecaphan-12-one]: the IC50 on TYK2 is 1 to 10 µM; at JAK3, under 0.01 µM; on JAK2, 0.101 to 1 µM; on JAK1 it was 1 to 10 µM.
`CC1CCNC(=O)c2ccc(c([N+](=O)[O-])c2)-c2ccnc(n2)Nc2ccc(OCC3CCC3)c(c2)COC1` (centres unmarked) [Example 141, 4^4-(cyclobutylmethoxy)-8-methyl-1^2-nitro-6-oxa-3,11-diaza-2(4,2)-pyrimidina-1(1,4),4(1,3)-dibenzena-cyclododecaphan-12-one]: the IC50 at TYK2 was over 10 µM; on JAK3, 1 to 10 µM; at JAK2, over 10 µM; at JAK1, over 10 µM.
For the molecule `CC1CCNC(=O)c2ccc(c(N)c2)-c2ccnc(n2)Nc2ccc(OCC3CCC3)c(c2)COC1` (centres unmarked) [Example 142], the IC50 at TYK2 was over 10 µM; at JAK3, 0.011 to 0.1 µM; against JAK2, 1 to 10 µM; on JAK1, 1 to 10 µM.
Regarding `Nc1cc2ccc1-c1ccnc(n1)Nc1ccc(Oc3ccncc3)c(c1)COCCCCNC2=O` [Example 143, 1^2-amino-4^4-(pyridin-4-oxy)-6-oxa-3,11-diaza-2(4,2)-pyrimidina-1(1,4),4(1,3)-dibenzenacyclododeca-phan-12-one], the IC50 is over 10 µM on TYK2, 0.101 to 1 µM on JAK3, over 10 µM at JAK2 and over 10 µM on JAK1.
Consider `CC1CCNC(=O)c2ccc(c([N+](=O)[O-])c2)-c2ccnc(n2)Nc2ccc(OCC3CC3)c(c2)COC1` (centres unmarked) [Example 144, 4^4-(cyclopropylmethoxy)-8-methyl-1^2-nitro-6-oxa-3,11-diaza-2(4,2)-pyrimidina-1(1,4),4(1,3)-dibenzena-cyclododecaphan-12-one], for which the IC50 on TYK2 was over 10 µM; at JAK3, 1 to 10 µM; at JAK2 it was over 10 µM; on JAK1, over 10 µM.
Turning to `CC1CCNC(=O)c2ccc(c(N)c2)-c2ccnc(n2)Nc2ccc(OCC3CC3)c(c2)COC1` (centres unmarked) [Example 145, 1^2-amino-4^4-(cyclopropylmethoxy)-8-methyl-6-oxa-3,11-diaza-2(4,2)-pyrimidina-1(1,4),4(1,3)-dibenzena-cyclododecaphan-12-one], the IC50 on TYK2 was 1 to 10 µM; on JAK3, under 0.01 µM; at JAK2 it was 0.101 to 1 µM; on JAK1 it was 0.101 to 1 µM.
Consider `O=C1NCCCCOCc2cc(ccc2OCC2CCCOC2)Nc2nccc(n2)-c2ccc1cc2[N+](=O)[O-]` (centres unmarked) [Example 146, 1^2-nitro-4^4-((tetrahydro-2H-pyran-3-yl)methoxy)-6-oxa-3,11-diaza-2(4,2)-pyrimidina-1(1,4),4(1,3)-dibenzenacyclododecaphan-12-one], for which the IC50 on TYK2 is over 10 µM; on JAK3, 0.101 to 1 µM; on JAK2, 1 to 10 µM; at JAK1, over 10 µM.
Regarding `Nc1cc2ccc1-c1ccnc(n1)Nc1ccc(OCC3CCCOC3)c(c1)COCCCCNC2=O` (centres unmarked) [Example 147], the IC50 on TYK2 was 1 to 10 µM; at JAK3 it was under 0.01 µM; against JAK2 it was 0.101 to 1 µM; on JAK1, 0.101 to 1 µM.
Regarding `Nc1cc2ccc1-c1ccnc(n1)Nc1ccc(OCc3cccc4c3OCC4)c(c1)COCCCCNC2=O` [Example 148, 1^2-amino-4^4-((2,3-dihydrobenzofu-ran-7-yl)methoxy)-6-oxa-3,11-dia-za-2(4,2)-pyrimidina-1(1,4),4(1,3)-dibenzenacyclododecaphan-12-one], the IC50 is over 10 µM on TYK2, under 0.01 µM on JAK3, 0.101 to 1 µM against JAK2 and 1 to 10 µM on JAK1.
For `CC1CCNC(=O)c2ccc(c(N)c2)-c2ccnc(n2)Nc2ccc(OCC3CCCCC3)c(c2)COC1` (centres unmarked) [Example 149, 1^2-amino-4^4-(cyclohexylmethoxy)-8-methyl-6-oxa-3,11-diaza-2(4,2)-pyrimidina-1(1,4),4(1,3)-dibenzena-cyclododecaphan-12-one], the IC50 at TYK2 is over 10 µM; at JAK3, 0.011 to 0.1 µM; at JAK2 it was 1 to 10 µM; at JAK1, 1 to 10 µM.
Consider `O=C1NCCCCOCc2cc(ccc2OCc2cccc3c2CCO3)Nc2nccc(n2)-c2ccc1cc2[N+](=O)[O-]` [Example 150, 4^4-((2,3-dihydroxybenzofuran-4-yl)methoxy)-1^2-nitro-6-oxa-3,11-diaza-2(4,2)-pyrimidina-1(1,4),4(1,3)-dibenzenacyclododecaphan-12-one], for which the IC50 on TYK2 was over 10 µM; at JAK3 it was 1 to 10 µM; against JAK2, over 10 µM; at JAK1, over 10 µM.
As to `Nc1cc2ccc1-c1ccnc(n1)Nc1ccc(OCc3cccc4c3CCO4)c(c1)COCCCCNC2=O` [Example 151, 1^2-amino-4^4-((2,3-dihydrobenzofu-ran-4-yl)methoxy)-6-oxa-3,11-dia-za-2(4,2)-pyrimidina-1(14),4(1,3)-dibenzenacyclododecaphan-12-one], the IC50 at TYK2 was in the range of 1 to 10 µM; on JAK3, 0.011 to 0.1 µM; on JAK2 it was 0.101 to 1 µM; on JAK1, 1 to 10 µM.
`O=C1NCCCCOCc2cc(ccc2OCc2ccccc2F)Nc2nccc(n2)-c2ccc1cc2[N+](=O)[O-]` [Example 152, 4^4-((2-fluorobenzyl)oxy)-1^2-nitro-6-oxa-3,11-diaza-2(4,2)-pyrimidina-1(1,4),4(1,3)-dibenzenacyclodo-decaphan-12-one]: the IC50 on TYK2 is over 10 µM; at JAK3, 0.101 to 1 µM; against JAK2 it was 1 to 10 µM; at JAK1 it was 1 to 10 µM.
As for `Nc1cc2ccc1-c1ccnc(n1)Nc1ccc(OCc3ccccc3F)c(c1)COCCCCNC2=O` [Example 153, 1^2-amino-4^4-((2-fluorobenzyl)oxy)-6-oxa-3,11-diaza-2(4,2)-pyrimidi-na-1(1,4),4(1,3)-dibenzenacyclo-dodecaphan-12-one], the IC50 at TYK2 is over 10 µM; on JAK3, under 0.01 µM; against JAK2, 0.101 to 1 µM; on JAK1, 1 to 10 µM.
For the molecule `O=C1NCCCCOCc2cc(ccc2OCC2Cc3ccccc3O2)Nc2nccc(n2)-c2ccc1cc2[N+](=O)[O-]` (centres unmarked) [Example 154, 4^4-((2,3-dihydroxybenzofuran-2-yl)methoxy)-1^2-nitro-6-oxa-3,11-diaza-2(4,2)-pyrimidina-1(1,4),4(1,3)-dibenzenacyclododecaphan-12-one], the IC50 at TYK2 was over 10 µM; at JAK3, 0.101 to 1 µM; against JAK2, 1 to 10 µM; on JAK1, 1 to 10 µM.
Turning to `Nc1cc2ccc1-c1ccnc(n1)Nc1ccc(OCC3Cc4ccccc4O3)c(c1)COCCCCNC2=O` (centres unmarked) [Example 155, 1^2-amino-4^4-((2,3-dihydroxybenzo-furan-2-yl)methoxy)-6-oxa-3,11-di-aza-2(4,2)-pyrimidina-1(1,4),4(1,3)-dibenzenacyclododecaphan-12-one], the IC50 on TYK2 lay within 1 to 10 µM; at JAK3, 0.011 to 0.1 µM; against JAK2 it was 0.101 to 1 µM; on JAK1 it was 1 to 10 µM.
`COc1ccccc1COc1ccc2cc1COCCCCNC(=O)c1ccc(c(N)c1)-c1ccnc(n1)N2` [Example 156, 1^2-amino-4^4-((2-methoxybenzyl)oxy)-6-oxa-3,11-diaza-2(4,2)-pyri-midina-1(1,4),4(1,3)-dibenzena-cyclododecaphan-12-one]: the IC50 on TYK2 is over 10 µM; on JAK3, 0.011 to 0.1 µM; on JAK2 it was 0.101 to 1 µM; at JAK1, 1 to 10 µM.

Values taken from US20230203059A1, “MACROCYCLIC JAK INHIBITOR AND USES THEREOF” (Biopolar Hongye (Guangdong) Pharmaceutical Co. Ltd., priority 2020, published 2023).
